Source: ChEMBL document CHEMBL1201862, “PubChem BioAssay data set” (2004)
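These data come from cells grown in 96-well plates and exposed to compound for 48 hours at five concentrations. The concentration for 50% growth inhibition is given as GI50.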 Calls of active or inactive are those of the source. Cut-off read from the data, not from the text of the source: active = GI50 up to about 1.1 µM and inactive = higher.

How the values were obtained:
Test in all cases: DTP human tumour cell line panel, 48 h
SR = system: SR
SK-MEL-5 = system: SK-MEL-5
NCI/ADR-RES = system: NCI/ADR-RES
CCRF-CEM = system: CCRF-CEM
M14 = system: M14
UO-31 = system: UO-31
U-251 = system: U-251
CAKI-1 = system: CAKI-1
MDA-MB-231 = system: MDA-MB-231
Hs-578T = system: Hs-578T
MCF7 = system: MCF7
DU-145 = system: DU-145
MDA-N = system: MDA-N
HOP-62 = system: HOP-62
HOP-92 = system: HOP-92
TK-10 = system: TK-10
OVCAR-5 = system: OVCAR-5
HCT-15 = system: HCT-15
UACC-257 = system: UACC-257
RXF 393 = system: RXF 393
COLO 205 = system: COLO 205
786-0 = system: 786-0
T47D = system: T47D
HCT-116 = system: HCT-116
SNB-75 = system: SNB-75
SF-295 = system: SF-295
BT-549 = system: BT-549
SK-OV-3 = system: SK-OV-3
OVCAR-3 = system: OVCAR-3
RPMI-8226 = system: RPMI-8226
LOX IMVI = system: LOX IMVI
IGROV-1 = system: IGROV-1
OVCAR-4 = system: OVCAR-4
K562 = system: K562
KM12 = system: KM12
SF-539 = system: SF-539
SN12C = system: SN12C
NCI-H226 = system: NCI-H226
UACC-62 = system: UACC-62
SNB-19 = system: SNB-19
HT-29 = system: HT-29
NCI-H23 = system: NCI-H23
HL-60 = system: HL-60
MOLT-4 = system: MOLT-4
A549 = system: A549
SK-MEL-2 = system: SK-MEL-2
Malme-3M = system: Malme-3M
SW-620 = system: SW-620
EKVX = system: EKVX
SK-MEL-28 = system: SK-MEL-28
ACHN = system: ACHN
SF-268 = system: SF-268
NCI-H460 = system: NCI-H460
OVCAR-8 = system: OVCAR-8
MDA-MB-435 = system: MDA-MB-435
PC-3 = system: PC-3
HCC 2998 = system: HCC 2998
NCI-H522 = system: NCI-H522
A498 = system: A498

O=C1C(NS(=O)(=O)c2ccccc2)=C(N(Cc2ccccc2)Cc2ccccc2)C(=O)c2ccccc21 was tested, and the GI50 (SR) was 22.7 µM (inactive), the GI50 (SK-MEL-5) was 80.4 µM (inactive) and the GI50 (NCI/ADR-RES) was 38.5 µM (inactive). For the same compound, the GI50 (CCRF-CEM) was 20.2 µM (inactive), the GI50 (M14) was 43.7 µM (inactive) and the GI50 (UO-31) was 19.2 µM (inactive). For the same compound, the GI50 (U-251) was 35 µM (inactive), the GI50 (CAKI-1) was > 100 µM (inactive) and the GI50 (MDA-MB-231) was > 100 µM (inactive). The GI50 (Hs-578T) was 81.3 µM (inactive), the GI50 (MCF7) was 49.7 µM (inactive) and the GI50 (DU-145) was 48.1 µM (inactive). The GI50 (MDA-N) was 64.6 µM (inactive), the GI50 (HOP-62) was 41 µM (inactive) and the GI50 (HOP-92) was 36.3 µM (inactive). The GI50 (TK-10) was 66.8 µM (inactive), the GI50 (OVCAR-5) was > 100 µM (inactive) and the GI50 (HCT-15) was 37.7 µM. The GI50 (UACC-257) was 96.8 µM (inactive), the GI50 (RXF 393) was 15.5 µM (inactive) and the GI50 (COLO 205) was 39.6 µM (inactive). The GI50 (786-0) was 49.3 µM (inactive), the GI50 (T47D) was 32.1 µM (inactive) and the GI50 (HCT-116) was 36.7 µM (inactive). For the same compound, the GI50 (SNB-75) was 70.8 µM (inactive), the GI50 (SF-295) was 31.9 µM (inactive) and the GI50 (BT-549) was 16.9 µM (inactive). The GI50 (SK-OV-3) was 39.9 µM (inactive), the GI50 (OVCAR-3) was 30.4 µM (inactive) and the GI50 (RPMI-8226) was 18.8 µM (inactive). The GI50 (LOX IMVI) was 65.3 µM (inactive), the GI50 (IGROV-1) was 41.8 µM (inactive) and the GI50 (OVCAR-4) was 19.5 µM (inactive). For the same compound, the GI50 (K562) was 31.1 µM (inactive), the GI50 (KM12) was > 100 µM (inactive) and the GI50 (SF-539) was 67.5 µM (inactive). The GI50 (SN12C) was 41.5 µM (inactive), the GI50 (NCI-H226) was 64.7 µM (inactive) and the GI50 (UACC-62) was 33.4 µM (inactive). For the same compound, the GI50 (SNB-19) was 38.6 µM (inactive), the GI50 (HT-29) was 60.3 µM (inactive) and the GI50 (NCI-H23) was 15.8 µM (inactive). The GI50 (HL-60) was 20.7 µM (inactive), the GI50 (MOLT-4) was 21.1 µM (inactive) and the GI50 (A549) was 33 µM (inactive). The GI50 (SK-MEL-2) was 20.8 µM (inactive), the GI50 (Malme-3M) was 0.273 µM (active) and the GI50 (SW-620) was 38.9 µM (inactive). The GI50 (EKVX) was 53.7 µM (inactive), the GI50 (SK-MEL-28) was 40.9 µM (inactive) and the GI50 (ACHN) was 44.1 µM (inactive). For the same compound, the GI50 (SF-268) was 88.1 µM (inactive), the GI50 (NCI-H460) was 36.6 µM (inactive) and the GI50 (OVCAR-8) was 70.3 µM (inactive). For the same compound, the GI50 (MDA-MB-435) was 47.3 µM (inactive) and the GI50 (PC-3) was 32.4 µM (inactive).

In the case of CCCCC(CC)C(=O)Oc1ccc(C(=O)c2ccccc2)c(O)c1 (configuration not stated), the GI50 (SK-MEL-5) is reported as 39.6 µM (inactive), the GI50 (NCI/ADR-RES) is reported as 35.9 µM (inactive) and the GI50 (CCRF-CEM) is reported as 43.6 µM (inactive). The GI50 (M14) was 38.5 µM (inactive), the GI50 (UO-31) was 20.9 µM (inactive) and the GI50 (U-251) was 46.7 µM (inactive). The GI50 (CAKI-1) was 43.5 µM (inactive), the GI50 (MDA-MB-231) was > 100 µM (inactive) and the GI50 (Hs-578T) was 20.6 µM (inactive). The GI50 (MCF7) was 60.4 µM (inactive), the GI50 (DU-145) was 57 µM (inactive) and the GI50 (MDA-N) was 41.4 µM (inactive). For the same compound, the GI50 (HCC 2998) was 52.8 µM (inactive), the GI50 (HOP-62) was 55 µM (inactive) and the GI50 (HOP-92) was 23.2 µM (inactive). For the same compound, the GI50 (TK-10) was 58.7 µM (inactive), the GI50 (OVCAR-5) was 38.5 µM (inactive) and the GI50 (HCT-15) was 40.1 µM. The GI50 (UACC-257) was 38.5 µM (inactive), the GI50 (RXF 393) was 49.8 µM (inactive) and the GI50 (COLO 205) was 61.2 µM (inactive). The GI50 (T47D) was 45.7 µM (inactive), the GI50 (NCI-H522) was 31.7 µM (inactive) and the GI50 (HCT-116) was 43.3 µM (inactive). The GI50 (SNB-75) was 23.3 µM (inactive), the GI50 (SF-295) was 29.4 µM (inactive) and the GI50 (BT-549) was 39.1 µM (inactive). The GI50 (SK-OV-3) was > 100 µM (inactive), the GI50 (OVCAR-3) was 40.5 µM (inactive) and the GI50 (RPMI-8226) was 15.1 µM (inactive). For the same compound, the GI50 (LOX IMVI) was 44.6 µM (inactive), the GI50 (IGROV-1) was 55.7 µM (inactive) and the GI50 (OVCAR-4) was 31 µM (inactive). The GI50 (K562) was 25.9 µM (inactive), the GI50 (KM12) was 15.4 µM (inactive) and the GI50 (SF-539) was 5.46 µM (inactive). For the same compound, the GI50 (SN12C) was 44.4 µM (inactive), the GI50 (UACC-62) was 32 µM (inactive) and the GI50 (SNB-19) was 68.9 µM (inactive). The GI50 (HT-29) was 55.7 µM (inactive), the GI50 (NCI-H23) was 35.2 µM (inactive) and the GI50 (HL-60) was 55.1 µM (inactive). For the same compound, the GI50 (MOLT-4) was 24.9 µM (inactive), the GI50 (A498) was 45.9 µM (inactive) and the GI50 (A549) was 46.8 µM (inactive). For the same compound, the GI50 (SK-MEL-2) was 56.4 µM (inactive), the GI50 (Malme-3M) was 40.6 µM (inactive) and the GI50 (SW-620) was 56.4 µM (inactive). For the same compound, the GI50 (EKVX) was 35.6 µM (inactive), the GI50 (SK-MEL-28) was 36.8 µM (inactive) and the GI50 (ACHN) was 48.1 µM (inactive). For the same compound, the GI50 (SF-268) was 34.5 µM (inactive), the GI50 (NCI-H460) was 35 µM (inactive) and the GI50 (OVCAR-8) was 44.9 µM (inactive). The GI50 (MDA-MB-435) was 35.8 µM (inactive) and the GI50 (PC-3) was 51.5 µM (inactive).
